Literature values, collected in patent publication EP1197217A1, “Use of sodium nitroprussiate in obstetrics and gynaecology” (Ibsa Institut Biochimique S.A., priority 2000, dated 2002).
Where “and” joins values, the source holds several entries; their conditions need not be identical. Identical values can stand only once.

System: cervix
Details: in vivo

O=[N+]([O-])O[C@@H]1CO[C@H]2[C@@H]1OC[C@@H]2O [isosorbide mononitrate]
cumulative median force necessary to dilate the cervix to 8 mm: 40 newtons and 36 newtons
